Reference: patent US20120258980A1, “Antibacterial Agent for Drug-Resistant Bacteria, Method for Screening for Same, and Use of Same” (priority 2009, published 2012)
Converted amounts (≈) assume the structure as drawn.

Assays:
[1] = system: methicillin-susceptible S. aureus (MSSA), MRSA and mutants thereof; test: MIC measurement, Test Example 3 (MSSA, MRSA and sequential gyrA/grlA quinolone-resistant mutants); type: cell-based, Staphylococcus aureus
Text: That is, the first-step quinolone-resistant mutants are bacterial strains which are the same as their parent strains (clinical isolates) except that the genes shown in the corresponding parts of Table 1-1 are mutated. The second-step quinolone-resistant mutants are bacterial strains which are the same as the first-step quinolone-resistant mutants except that the genes shown in the corresponding parts of Table 1-1 are further mutated. The third-step quinolone-resistant mutants are bacterial strains which are the same as the second-step quinolone-resistant mutants except that the genes shown in the corresponding parts of Table 1-1 are further mutated. The fourth-step quinolone-resistant strain is a bacterial strain which is the same as the third-step quinolone-resistant mutant bacteria except that the gene shown in the corresponding part of Table 1-1 is further mutated.
(§1) Each of the bacterial strains listed in Table 1-1 was shake-cultured at 37° C. overnight in 4 mL of a medium (Tryptical Soy Broth: TSB, product of Becton Dickinson and Company). FDA209P was used as a control.
(§2) After completion of culturing, the resultant culture was suspended in a cation-adjusted Mueller Hinton Broth (CAMHB, product of Becton Dickinson and Company). Then, the obtained bacterial culture was adjusted in absorbance with the CAMHB so that the absorbance at 578 nm of the bacterial culture was adjusted to 0.3 measured by an absorption spectrometer. In addition, the resultant bacterial culture was 500-fold diluted with the CAMHB.
(§3) Each of the 500-fold diluted, pre-cultured bacterial cultures was added at 50 μL/well to the CAMHB containing the quinolones and the nybomycins at various concentrations (50 μL/well), followed by statically culturing at 37° C. overnight.
(§4) After completion of culturing, the growth of the bacteria was visually determined based on turbidity to measure MIC in each bacterial strain.

[2] = system: MRSA, CA-MRSA and MSSA of Staphylococcus aureus; test: MIC measurement, Test Example 4 (MRSA, CA-MRSA and MSSA strains); type: cell-based
Experimental: as §1, §2, §3, §4
Glycopeptides, imipenem, quinolones and nybomycins were studied for antibacterial activity against the bacterial strains listed in Table 2-1; i.e., MRSA, CA-MRSA and MSSA of Staphylococcus aureus.

[3] = system: Enterococcus faecalis; test: MIC measurement, Test Example 6 (enterococcus); type: cell-based
Experimental: as §1, §2, §3, §4
Quinolones and nybomycins were evaluated for antibacterial activity against Enterococcus faecalis shown in Table 6, wherein the other strains than NCTC12201 and NCTC12203 were subdivided from Shionogi & Co., Ltd (note that these strains are available also from the Department of Bacteriology, Juntendo University). The NCTC strains are both vancomycin-resistant E. faecalis and available from the National Collection of Type Cultures (NCTC).

Cl.O=C(O)c1cn(C2CC2)c2cc(N3CCNCC3)c(F)cc2c1=O [CPFX, ciprofloxacin chloride] gave an MIC ([1]; MR5867-1, first-step quinolone-resistant mutant, grlA E84K) of 2 µg/mL, an MIC ([1]; MR5867-2, second-step mutant, further gyrA S84L) of 32 µg/mL and an MIC ([1]; MS5935-1, first-step quinolone-resistant mutant, grlA S80F) of 2 µg/mL. It also gave an MIC ([1]; MS5935-2, second-step mutant, further gyrA S84L) of 32 µg/mL, an MIC ([1]; MS5952-1, first-step quinolone-resistant mutant, grlA S80Y) of 2 µg/mL and an MIC ([1]; MS5952-2, second-step mutant, further gyrA S84L) of 8 µg/mL. For the same compound, the MIC ([1]; MS5952-3, third-step mutant, further grlA A116V) was 64 µg/mL, the MIC ([2]; ISA12-1, MRSA) was 0.5 µg/mL and the MIC ([2]; ISA35-1, MRSA) was 4 µg/mL. It also gave an MIC ([2]; ISA51-1, MSSA) of 0.5 µg/mL, an MIC ([2]; ISA58-1, MRSA) of 0.5 µg/mL and an MIC ([2]; ISA73-1, MSSA) of 0.5 µg/mL. It also gave an MIC ([2]; KBSA34, MRSA) of 0.5 µg/mL, an MIC ([2]; KBSA72, MRSA) of 128 µg/mL and an MIC ([2]; KBSA96, MRSA) of 32 µg/mL. For the same compound, the MIC ([2]; KBSA171, MRSA) was 64 µg/mL, the MIC ([2]; KSA24, MRSA) was 32 µg/mL and the MIC ([2]; KSA31, MRSA) was 8 µg/mL. It also gave an MIC ([2]; KSA36, MRSA) of 128 µg/mL, an MIC ([2]; USA300 FPR3757, CA-MRSA) of 16 µg/mL and an MIC ([3]; E. faecalis 36-15672, quinolone-susceptible enterococci) of 1 µg/mL. It also gave an MIC ([3]; E. faecalis 36-15673, quinolone-susceptible enterococci) of 1 µg/mL, an MIC ([3]; E. faecalis 36-15678, quinolone-susceptible enterococci) of 1 µg/mL and an MIC ([3]; E. faecalis 36-15686, quinolone-resistant enterococci) of 128 µg/mL. For the same compound, the MIC ([3]; E. faecalis 36-15688, quinolone-susceptible enterococci) was 1 µg/mL, the MIC ([3]; E. faecalis 36-15694, quinolone-resistant enterococci) was 32 µg/mL and the MIC ([3]; E. faecalis 36-15696, quinolone-susceptible enterococci) was 1 µg/mL. It also gave an MIC ([3]; E. faecalis 36-15703, quinolone-resistant enterococci) of 32 µg/mL, an MIC ([3]; E. faecalis 36-15716, quinolone-resistant enterococci) of 128 µg/mL and an MIC ([3]; E. faecalis 36-15718, quinolone-susceptible enterococci) of 1 µg/mL. For the same compound, the MIC ([3]; E. faecalis 36-15720, quinolone-susceptible enterococci) was 2 µg/mL, the MIC ([3]; E. faecalis 36-15722, quinolone-resistant enterococci) was 64 µg/mL and the MIC ([3]; E. faecalis 36-15726, quinolone-resistant enterococci) was 64 µg/mL. It also gave an MIC ([3]; E. faecalis 36-15730, quinolone-susceptible enterococci) of 2 µg/mL, an MIC ([3]; E. faecalis 36-15736, quinolone-susceptible enterococci) of 1 µg/mL and an MIC ([3]; E. faecalis 36-15741, quinolone-susceptible enterococci) of 2 µg/mL. The MIC ([3]; E. faecalis NCTC12201, vancomycin-resistant (VRE), quinolone-susceptible enterococci) was 1 µg/mL and the MIC ([3]; E. faecalis NCTC12203, vancomycin-resistant (VRE), quinolone-susceptible enterococci) was 1 µg/mL.

C[C@@H](O)[C@H]1C(=O)N2C(C(=O)O)=C(SCCN=CN)C[C@H]12 [IPM, imipenem] showed an MIC ([2]; Staphylococcus aureus, ATCC 29213 / MRSA / MSSA, ATCC 29213, MSSA) of under 0.03 µg/mL, an MIC ([2]; Staphylococcus aureus, COL, MRSA) of 64 µg/mL (≈ 214 µM) and an MIC ([2]; Staphylococcus aureus, FDA209P / MRSA / MSSA, FDA209P, MSSA) of under 0.03 µg/mL. The MIC ([2]; Staphylococcus aureus, ISA12-1, MRSA) was 16 µg/mL (≈ 53.4 µM), the MIC ([2]; Staphylococcus aureus, ISA12-2, MRSA) was 16 µg/mL (≈ 53.4 µM) and the MIC ([2]; Staphylococcus aureus, ISA35-1, MRSA) was 1 µg/mL (≈ 3.34 µM). For the same compound, the MIC ([2]; Staphylococcus aureus, ISA37-1, MSSA) was 0.125 µg/mL (≈ 0.418 µM), the MIC ([2]; Staphylococcus aureus, ISA49-1, MSSA) was 0.25 µg/mL (≈ 0.835 µM) and the MIC ([2]; Staphylococcus aureus, ISA51-1, MSSA) was 0.25 µg/mL (≈ 0.835 µM). It also gave an MIC ([2]; Staphylococcus aureus, ISA56-3, MRSA) of 16 µg/mL (≈ 53.4 µM), an MIC ([2]; Staphylococcus aureus, ISA58-1, MRSA) of 0.125 µg/mL (≈ 0.418 µM) and an MIC ([2]; Staphylococcus aureus, ISA62-1, MRSA) of 2 µg/mL (≈ 6.68 µM). It also gave an MIC ([2]; Staphylococcus aureus, ISA73-1, MSSA) of 0.25 µg/mL (≈ 0.835 µM), an MIC ([2]; Staphylococcus aureus, KBSA32, MRSA) of 0.25 µg/mL (≈ 0.835 µM) and an MIC ([2]; Staphylococcus aureus, KBSA34, MRSA) of 0.25 µg/mL (≈ 0.835 µM). It also gave an MIC ([2]; Staphylococcus aureus, KBSA72, MRSA) of 0.125 µg/mL (≈ 0.418 µM), an MIC ([2]; Staphylococcus aureus, KBSA96, MRSA) of 0.25 µg/mL (≈ 0.835 µM) and an MIC ([2]; Staphylococcus aureus, KBSA171, MRSA) of 0.25 µg/mL (≈ 0.835 µM). For the same compound, the MIC ([2]; Staphylococcus aureus, KSA24, MRSA) was 0.5 µg/mL (≈ 1.67 µM), the MIC ([2]; Staphylococcus aureus, KSA31, MRSA) was 0.125 µg/mL (≈ 0.418 µM) and the MIC ([2]; Staphylococcus aureus, KSA36, MRSA) was 0.5 µg/mL (≈ 1.67 µM). For the same compound, the MIC ([2]; Staphylococcus aureus, MRSA / MSSA / NCTC 8325, NCTC 8325, MSSA) was at most 0.063 µg/mL, the MIC ([2]; Staphylococcus aureus, MRSA / MSSA / USA300, USA300 FPR3757, CA-MRSA) was 2 µg/mL (≈ 6.68 µM) and the MIC ([2]; Staphylococcus aureus, MW2, CA-MRSA) was 2 µg/mL (≈ 6.68 µM). For the same compound, the MIC ([2]; Staphylococcus aureus, N315, MRSA) was 8 µg/mL (≈ 26.7 µM).
